Data from US9586986B2, “Substituted 7-deazapurine ribonucleosides for therapeutic uses” (Institute of Organic Chemistry and Biochemistry ASCR, v.v.i., priority 2014, dated 2017).

Experiments:
[1] = system: HeLa S3; assay: XTT cytotoxicity assay, HeLa S3; format: cell-based; settings: Homo sapiens, HeLa S3; 72 h incubation; read-out: XTT, IC50 HeLa S3
Description: (§1) HL-60, Hela S3 and HepG2 cell lines (ATCC) were grown in RPMI-1640 or DMEM medium supplemented with 10% fetal calf serum, […] of streptomycin, 200 U/mL of penicillin G and 4 mM glutamine in a humidified atmosphere containing 5% CO2 at 37° C. Sensitivity of these cell lines to the synthesized compounds was assessed with the use of XTT cell proliferation kit II (Roche Diagnostics GmbH, Mannheim, Germany) according to the manufacturer's instructions. Briefly, cells were seeded in a 96-well plate at a density of 10,000 cells per well (90 μL). After 24 h, 10 μL of the tested compounds were added to the culture media at desired concentration range and incubated for 72 h. After that 50 μL of the XTT solution was added (1 mg/mL XTT+0.383 mg/mL N-methyl dibenzopyrazine methyl sulfate). The absorbance was recorded at 495 nm following a 2 h-incubation with the dye. IC50 values were determined by non-linear regression method using GraphPad Prism version 5.00 for Windows (GraphPad Software, La Jolla, Calif., USA).
(§2) In addition, the anti-proliferative effect was tested against a human T-lymphoblastic leukemia line CCRF-CEM, promyelocytic leukemia HL-60 and cervical carcinoma HeLa S3 growing in liquid suspension. Cell viability was determined following a 3-day incubation using 2,3-bis-(2-methoxy-4-nitro-5-sulfophenyl)-2H-tetrazolium-5-carboxanilide (XTT) assay (ref.: Scudiero, D. A.; Shoemaker, R. H.; Paull, K. D.; Monks, A.; Tierney, S.; Nofziger, T. H.; Currens, M. J.; Seniff, D.; Boyd M. R. Evaluation of a Soluble Tetrazolium/Formazan Assay for Cell Growth and Drug Sensitivity in Culture Using Human and Other Tumor Cell Lines. Cancer Res. 1988, 48, 4827-4833).

[2] = system: K562-TAX; assay: Cytostatic/cytotoxic MTT assay, K562-TAX; format: cell-based; settings: Homo sapiens, paclitaxel resistant subline, 72 h, read-out: MTT, IC50 K562-TAX
Description: (§3) Unless otherwise stated, all cells were purchased from the […] (ATCC). The CCRF-CEM line is derived from T lymphoblastic leukemia, evincing high chemosenzitivity, K562 represent cells from a […] patient sample with bcr-abl translocation, HCT116 is colorectal tumor cell line and its p53 gene knock-down counterpart (HCT116p53−/−, Horizon Discovery, UK) is a model of human cancers with p53 inactivation frequently associated with poor prognosis, A549 cell line is lung adenocarcinoma. The daunorubicin resistant subline of CCRF-CEM cells (CEM-DNR bulk) and paclitaxel resistant subline K562-TAX were selected in our laboratory by cultivation of maternal cell lines in increasing concentrations of daunorubicine or paclitaxel, respectively. The CEM-DNR cells overexpress mrp-1 and mdr-1 genes, while K562-TAX cells overexpress mdr-1 only. Both proteins belong to the family of ABC transporters and are involved in the primary and/or acquired multidrug resistance phenomenon (ref.: Gottesman, M. M.; Fojo, T.; Bates, S. E. Multidrug resistance in cancer: role of ATP-dependent transporters. Nat. Rev. Cancer. 2002, 2, 48-58. (b) Noskova, V.; Dzubak, P.; Kuzmina, G.; Ludkova, A.; Stehlik, D.; Trojanec, R.; Janostakova, A.; Korinkova, G.; Mihal, V.; Hajduch, M. In vitro chemoresistance profile and expression/function of MDR associated proteins in resistant cell lines derived from CCRF-CEM, K562, A549 and MDA MB 231 parental cells. Neoplasma 2002, 49, 418-425). Non-malignant MRC-5 and BJ cells, derived from normal human fibroblasts, were used as controls. The cells were maintained in Nunc/Corning 80 cm^2 plastic tissue culture flasks and cultured in cell culture medium (DMEM/RPMI 1640 with 5 g/L glucose, 2 mM glutamine, 100 U/mL penicillin, 100 µg/mL streptomycin, 10% fetal calf serum, and NaHCO3). Cell suspensions were prepared and diluted according to the particular cell type and the expected target cell density (25,000-30,000 cells/well based on cell growth characteristics). Cells were added by pipette (80 L) into 96-well microtiter plates. Inoculates were allowed a pre-incubation period of 24 h at 37° C. and 5% CO2 for stabilization. Four-fold dilutions, in 20-L aliquots, of the intended test concentration were added to the microtiter plate walls at time zero. All test compound concentrations were examined in duplicate. Incubation of the cells with the test compounds lasted for 72 h at 37° C., in a 5% CO2 atmosphere at 100% humidity. At the end of the incubation period, the cells were assayed using MTT. Aliquots (10 L) of the MTT stock solution (5 mg/ml) were pipetted into each well and incubated for another 1-4 h. After this incubation period the formazan produced was dissolved by addition of 100 µL/well of 10% aq SDS (pH 5.5), followed by a further incubation at 37° C. overnight. The optical density was measured at 540 nm. The IC50 value, the drug concentration inhibiting the cell growth by 50%, was calculated from appropriate dose-response curves.
(§4) In vitro cytotoxic/cytostatic activity final nucleosides 1-5 was initially evaluated against […] cell lines derived from human solid tumors including lung (A549 cells) and colon (HCT116 and HCT116p53−/−) carcinomas, as well as leukemia cell lines (CCRF-CEM, CEM-DNR, K562 and K562-TAX) and, for comparison, non-malignant BJ and MRC-5 fibroblasts. Concentrations inhibiting the cell growth by 50% (IC50) were determined using a quantitative metabolic staining with 3-(4,5-dimethylthiazol-2-yl)-2,5-diphenyltetrazolium bromide (MTT) (ref.: Denizot, F.; Lang, R. Rapid colorimetric assay for cell growth and survival: Modifications to the tetrazolium dye procedure giving improved sensitivity and reliability. J. Immunol. Meth. 1986, 89, 271-277) following a 3-day treatment.
(§5) Multidrug resistance is a major therapeutic problem in cancer chemotherapy. […]

[3] = system: CEM-DNR-bulk; assay: Cytostatic/cytotoxic MTT assay, CEM-DNR-bulk; format: cell-based; settings: Homo sapiens; daunorubicin resistant subline, 72 h; read-out: MTT, IC50 CEM-DNR-bulk
Description: as §3, §4, §5

[4] = system: CCRF-CEM; assay: Cytostatic/cytotoxic MTT assay, CCRF-CEM; format: cell-based; settings: Homo sapiens, 72 h incubation, read-out: MTT, IC50 CCRF-CEM
Description: as §3, §4

[5] = system: HL60; assay: XTT cytotoxicity assay, HL-60; format: cell-based; settings: Homo sapiens, HL-60; 72 h incubation; read-out: XTT, IC50 HL60
Description: as §1, §2

[6] = system: MRC-5; assay: Cytostatic/cytotoxic MTT assay, MRC-5 fibroblasts; format: cell-based; settings: Homo sapiens, MRC5; non-malignant fibroblasts, 72 h; read-out: MTT, IC50 MRC-5
Description: as §3, §4

[7] = system: HepG2; assay: XTT cytotoxicity assay, HepG2; format: cell-based; settings: Homo sapiens, HepG2; 72 h incubation; read-out: XTT, IC50 HepG2
Description: as §1

[8] = system: K562; assay: Cytostatic/cytotoxic MTT assay, K562; format: cell-based; settings: Homo sapiens, K562; 72 h incubation; read-out: MTT, IC50 K562
Description: as §3, §4

[9] = system: A549; assay: Cytostatic/cytotoxic MTT assay, A549; format: cell-based; settings: Homo sapiens, A549; 72 h incubation; read-out: MTT, IC50 A549
Description: as §3, §4

[10] = system: HCT116p53-/-; assay: Cytostatic/cytotoxic MTT assay, HCT116p53-/-; format: cell-based; settings: Homo sapiens, HCT-116; 72 h incubation; read-out: MTT, IC50 HCT116 p53-/-
Description: as §3, §4, §5

[11] = system: BJ; assay: Cytostatic/cytotoxic MTT assay, BJ fibroblasts; format: cell-based; settings: Homo sapiens, non-malignant fibroblasts, 72 h, read-out: MTT, IC50 BJ
Description: as §3, §4

[12] = system: HCT116; assay: Cytostatic/cytotoxic MTT assay, HCT116; format: cell-based; settings: Homo sapiens, HCT-116; 72 h incubation; read-out: MTT, IC50 HCT116
Description: as §3, §4, §5

| SMILES | IC50 [1] | IC50 [2] | IC50 [3] | IC50 [4] | IC50 [5] | IC50 [6] | IC50 [7] | IC50 [8] | IC50 [9] | IC50 [10] | IC50 [11] | IC50 [12] | melting point |
| --- | --- | --- | --- | --- | --- | --- | --- | --- | --- | --- | --- | --- | --- |
| Cc1ncnc2c1c(I)cn2[C@@H]1O[C@H](CO)[C@@H](O)[C@H]1O [Compound 5h, 5-Iodo-4-methyl-7-(β-D-ribofuranosyl)-7H-pyrrolo[2,3-d]pyrimidine] | 4.08 µM | > 20 µM | 12.6 µM | 5.48 µM | 2.65 µM | 13.3 µM | 3.46 µM | 17.8 µM | 12.2 µM | 7.57 µM | > 100 µM | 4.72 µM |  |
| CNc1ncnc2c1c(I)cn2[C@@H]1O[C@H](CO)[C@@H](O)[C@H]1O [Compound 3h, 5-Iodo-4-methylamino-7-(β-D-ribofuranosyl)-7H-pyrrolo[2,3-d]pyrimidine] | > 20 µM | > 20 µM | > 20 µM | > 100 µM | > 20 µM | > 100 µM | > 20 µM | > 100 µM | > 100 µM | > 100 µM | > 100 µM | > 100 µM |  |
| Cc1ncnc2c1c(Br)cn2[C@@H]1O[C@H](CO)[C@@H](O)[C@H]1O [Compound 5i, 5-Bromo-4-methyl-7-(β-D-ribofuranosyl)-7H-pyrrolo[2,3-d]pyrimidine] | 13.8 µM | 15.8 µM | > 20 µM | 15 µM | 7.24 µM | 24.4 µM | 5.55 µM | > 20 µM | > 20 µM | 19.6 µM | > 100 µM | 15.7 µM | 188 to 189 °C |
